Test in all cases: biochemical
What all share (set-up): In vitro kinase panel profiling, per cent remaining kinase activity at 10 uM

Experiment [1] concerns the target T1, EphB4(h) (Homo sapiens, UniProt P54760).
T1 sequence (P54760 1-987): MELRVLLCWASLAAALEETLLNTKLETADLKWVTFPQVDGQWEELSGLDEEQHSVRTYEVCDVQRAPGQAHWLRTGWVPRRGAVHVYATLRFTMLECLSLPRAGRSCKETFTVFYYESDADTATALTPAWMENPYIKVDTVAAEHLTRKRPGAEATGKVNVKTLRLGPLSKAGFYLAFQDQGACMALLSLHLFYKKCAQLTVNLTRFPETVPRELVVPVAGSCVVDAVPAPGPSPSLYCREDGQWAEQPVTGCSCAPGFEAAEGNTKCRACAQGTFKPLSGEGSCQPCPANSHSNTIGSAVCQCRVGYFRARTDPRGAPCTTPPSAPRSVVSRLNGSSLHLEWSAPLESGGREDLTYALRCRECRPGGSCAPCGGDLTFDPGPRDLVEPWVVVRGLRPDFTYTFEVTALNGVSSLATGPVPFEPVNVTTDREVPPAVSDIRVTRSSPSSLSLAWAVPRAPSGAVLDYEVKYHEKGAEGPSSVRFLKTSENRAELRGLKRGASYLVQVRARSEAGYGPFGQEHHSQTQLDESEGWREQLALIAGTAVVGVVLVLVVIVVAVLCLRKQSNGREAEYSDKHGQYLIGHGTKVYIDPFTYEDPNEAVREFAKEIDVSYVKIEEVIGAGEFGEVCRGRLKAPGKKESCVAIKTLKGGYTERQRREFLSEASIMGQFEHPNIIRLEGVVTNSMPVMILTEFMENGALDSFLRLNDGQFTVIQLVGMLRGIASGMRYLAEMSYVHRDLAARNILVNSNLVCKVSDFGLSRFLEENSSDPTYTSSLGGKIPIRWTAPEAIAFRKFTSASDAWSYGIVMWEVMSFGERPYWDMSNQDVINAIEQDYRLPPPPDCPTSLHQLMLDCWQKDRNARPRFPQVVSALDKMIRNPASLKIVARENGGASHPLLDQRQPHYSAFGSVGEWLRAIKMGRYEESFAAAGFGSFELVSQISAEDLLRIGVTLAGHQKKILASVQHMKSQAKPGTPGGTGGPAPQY
Particulars: atp_concentration=10, read-out: % of control remaining. The text has this: (§1) We derisk potential for off-target activity by profiling the compound in a CEREP panel, a standard secondary pharmacology assessment, as well as a kinase panel to derisk a potential hinge-binding motif in our leads, and a PARP panel to derisk activity against human […]. Reassuringly, the compounds are selective, with the only off-targets being moderate human CHRM2 and KOR receptors activity associated with ASAP-0011198.

Experiment [2] addresses T2, MSK2(h) (Homo sapiens, UniProt O75676).
T2 construct: gene RPS6KA4
Particulars: atp_concentration=45, read-out: % of control remaining.
Text: as §1

For experiment [3], the target named is T3, MEK1(h) (Homo sapiens, UniProt Q02750).
T3 construct: gene MAP2K1
The following applies: atp_concentration=10, read-out: % of control remaining.
Text: as §1

For experiment [4], the target named is T4, MST1(h) (Homo sapiens, UniProt Q13043).
T4 construct: gene STK4
T4 sequence (Q13043 1-487): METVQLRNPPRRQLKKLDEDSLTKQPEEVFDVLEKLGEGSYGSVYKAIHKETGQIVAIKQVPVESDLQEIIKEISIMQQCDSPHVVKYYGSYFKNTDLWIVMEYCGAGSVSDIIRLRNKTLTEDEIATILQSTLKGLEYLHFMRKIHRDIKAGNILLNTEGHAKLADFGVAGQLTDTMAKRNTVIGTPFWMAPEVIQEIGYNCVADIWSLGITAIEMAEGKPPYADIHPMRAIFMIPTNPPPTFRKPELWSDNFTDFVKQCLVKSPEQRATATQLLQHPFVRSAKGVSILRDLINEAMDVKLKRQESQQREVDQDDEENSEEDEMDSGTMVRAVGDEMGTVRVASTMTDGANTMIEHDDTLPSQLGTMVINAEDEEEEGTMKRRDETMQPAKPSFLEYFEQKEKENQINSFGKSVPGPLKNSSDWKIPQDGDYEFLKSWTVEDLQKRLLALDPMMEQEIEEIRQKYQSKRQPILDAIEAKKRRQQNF
Particulars: atp_concentration=90, read-out: % of control remaining.
Text: as §1

In experiment [5] the target is T5, PKA(h) (Homo sapiens, UniProt P17612).
T5 construct: gene PRKACA
Particulars: atp_concentration=10, read-out: % of control remaining.
Text: as §1

The target of experiment [6] is mTOR(h) (Homo sapiens, UniProt P42345). Particulars: atp_concentration=70, read-out: % of control remaining.
Text: as §1

In experiment [7] the target is T6, IRAK4(h) (Homo sapiens, UniProt Q9NWZ3).
T6 sequence (Q9NWZ3 1-460): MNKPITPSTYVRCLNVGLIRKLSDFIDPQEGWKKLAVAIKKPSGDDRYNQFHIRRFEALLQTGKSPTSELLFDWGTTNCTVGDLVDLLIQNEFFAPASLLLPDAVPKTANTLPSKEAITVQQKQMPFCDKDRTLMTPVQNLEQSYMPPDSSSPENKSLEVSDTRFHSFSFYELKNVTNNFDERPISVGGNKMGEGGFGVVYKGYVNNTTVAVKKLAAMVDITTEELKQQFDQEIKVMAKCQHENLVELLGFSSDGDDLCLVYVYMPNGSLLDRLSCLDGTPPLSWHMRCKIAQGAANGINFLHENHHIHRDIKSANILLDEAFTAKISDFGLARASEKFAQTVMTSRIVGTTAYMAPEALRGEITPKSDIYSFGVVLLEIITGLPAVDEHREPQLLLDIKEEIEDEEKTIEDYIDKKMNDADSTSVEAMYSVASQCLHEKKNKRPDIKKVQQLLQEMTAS
The following applies: atp_concentration=200, read-out: % of control remaining.
Text: as §1

The target of experiment [8] is CDK7/cyclinH/MAT1(h) (Homo sapiens, UniProt P50613). Particulars: atp_concentration=90, read-out: % of control remaining.
Text: as §1

Where two headings read alike, the source gives them in different places.

T2 sequence (O75676 whole entry): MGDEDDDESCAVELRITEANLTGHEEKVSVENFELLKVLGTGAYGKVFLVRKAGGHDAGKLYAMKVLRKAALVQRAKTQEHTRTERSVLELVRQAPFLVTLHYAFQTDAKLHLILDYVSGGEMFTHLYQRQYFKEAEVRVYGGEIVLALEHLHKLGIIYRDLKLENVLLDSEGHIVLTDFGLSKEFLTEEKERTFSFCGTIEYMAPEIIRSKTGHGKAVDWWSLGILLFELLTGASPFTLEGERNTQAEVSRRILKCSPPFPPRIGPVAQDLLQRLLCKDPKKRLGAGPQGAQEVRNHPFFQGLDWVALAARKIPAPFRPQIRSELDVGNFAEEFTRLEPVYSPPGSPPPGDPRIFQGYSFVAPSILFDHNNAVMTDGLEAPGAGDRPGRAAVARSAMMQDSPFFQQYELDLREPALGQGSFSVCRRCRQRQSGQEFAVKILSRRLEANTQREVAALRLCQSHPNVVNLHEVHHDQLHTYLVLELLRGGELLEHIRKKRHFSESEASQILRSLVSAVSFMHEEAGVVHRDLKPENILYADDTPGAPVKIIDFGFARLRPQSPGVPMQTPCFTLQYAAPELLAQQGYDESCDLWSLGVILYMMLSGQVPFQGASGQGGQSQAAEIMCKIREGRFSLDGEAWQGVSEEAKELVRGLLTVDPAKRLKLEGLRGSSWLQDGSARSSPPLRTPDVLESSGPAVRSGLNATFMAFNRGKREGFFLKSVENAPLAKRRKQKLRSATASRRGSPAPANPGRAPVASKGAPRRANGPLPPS
T3 sequence (Q02750 whole entry): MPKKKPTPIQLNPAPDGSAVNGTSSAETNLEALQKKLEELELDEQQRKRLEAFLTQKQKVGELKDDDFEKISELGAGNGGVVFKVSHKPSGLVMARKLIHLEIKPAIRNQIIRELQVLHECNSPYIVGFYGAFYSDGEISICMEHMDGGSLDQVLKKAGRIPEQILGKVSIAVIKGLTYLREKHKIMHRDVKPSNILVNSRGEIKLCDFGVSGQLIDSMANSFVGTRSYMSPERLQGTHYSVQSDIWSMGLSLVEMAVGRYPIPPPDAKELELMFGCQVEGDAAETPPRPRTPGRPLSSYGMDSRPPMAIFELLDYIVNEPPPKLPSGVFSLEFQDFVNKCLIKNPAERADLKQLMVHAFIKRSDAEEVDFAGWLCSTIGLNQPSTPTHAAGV
Sequence of CDK7/cyclinH/MAT1(h) (P50613 whole entry): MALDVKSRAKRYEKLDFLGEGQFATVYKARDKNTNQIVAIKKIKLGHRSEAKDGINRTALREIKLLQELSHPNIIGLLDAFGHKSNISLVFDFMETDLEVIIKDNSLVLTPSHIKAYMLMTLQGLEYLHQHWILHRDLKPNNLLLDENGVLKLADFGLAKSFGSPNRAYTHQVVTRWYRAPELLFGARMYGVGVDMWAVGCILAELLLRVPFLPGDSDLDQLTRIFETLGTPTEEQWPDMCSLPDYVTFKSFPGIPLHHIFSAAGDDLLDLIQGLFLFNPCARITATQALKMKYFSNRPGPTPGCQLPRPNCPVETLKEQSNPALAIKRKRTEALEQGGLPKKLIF
Sequence of CDK7/cyclinH/MAT1(h) (P51946 whole entry partner): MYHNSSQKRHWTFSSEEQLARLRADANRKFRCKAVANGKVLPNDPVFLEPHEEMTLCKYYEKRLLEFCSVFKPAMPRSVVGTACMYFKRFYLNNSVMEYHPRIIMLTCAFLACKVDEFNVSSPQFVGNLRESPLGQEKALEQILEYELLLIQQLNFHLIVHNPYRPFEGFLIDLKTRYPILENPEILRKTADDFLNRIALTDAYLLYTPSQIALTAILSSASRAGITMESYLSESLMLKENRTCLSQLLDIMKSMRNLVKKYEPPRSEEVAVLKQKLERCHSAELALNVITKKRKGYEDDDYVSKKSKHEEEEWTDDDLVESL
Sequence of CDK7/cyclinH/MAT1(h) (P51948 whole entry partner): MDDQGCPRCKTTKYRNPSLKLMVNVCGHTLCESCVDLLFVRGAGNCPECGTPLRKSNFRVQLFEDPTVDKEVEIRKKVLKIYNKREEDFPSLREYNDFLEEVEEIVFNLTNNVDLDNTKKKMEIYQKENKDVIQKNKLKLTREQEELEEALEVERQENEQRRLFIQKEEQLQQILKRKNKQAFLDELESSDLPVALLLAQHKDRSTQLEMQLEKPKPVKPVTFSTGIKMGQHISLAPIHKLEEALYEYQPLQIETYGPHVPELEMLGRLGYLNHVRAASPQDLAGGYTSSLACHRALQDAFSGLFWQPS

For the molecule `CNCc1cc(-c2cc3c(N[C@@H](c4ccc5c(c4)S(=O)(=O)CCC5)C(C)C)ncnc3[nH]2)co1` [ASAP-0011176], the remaining activity at 10 µM in experiment [1] (batch_name=ASAP-0011176-002) was determined as 92%; in experiment [2] (batch_name=ASAP-0011176-002), 91%; in experiment [3] (batch_name=ASAP-0011176-002) it was 97%; in experiment [4] (batch_name=ASAP-0011176-002), 108%; in experiment [5] (batch_name=ASAP-0011176-002) it was 96%; in experiment [6] (batch_name=ASAP-0011176-002), 105%. Further, the remaining activity at 10 µM in experiment [7] (batch_name=ASAP-0011176-002) and in experiment [8] (batch_name=ASAP-0011176-002) was 100% throughout.
Regarding `C[C@H](C(=O)O)[C@@H](NC(=O)c1ncnc2[nH]ccc12)c1ccc(Br)cc1` [ASAP-0014722], the remaining activity at 10 µM was determined as 105% in experiment [1] (batch_name=ASAP-0014722-002); 90% in experiment [2] (batch_name=ASAP-0014722-002); 89% in experiment [3] (batch_name=ASAP-0014722-002); 121% in experiment [4] (batch_name=ASAP-0014722-002); 87% in experiment [5] (batch_name=ASAP-0014722-002); 100% in experiment [6] (batch_name=ASAP-0014722-002). Also, the figures for the remaining activity at 10 µM in experiment [7] (batch_name=ASAP-0014722-002) and in experiment [8] (batch_name=ASAP-0014722-002) were 106% and 99%, respectively.
`CC(C)C(Nc1ncnc2[nH]ccc12)c1ccc2c(c1)S(=O)(=O)CCC2` (stereo not shown) [ASAP-0008327]: the remaining activity at 10 µM in experiment [1] (batch_name=ASAP-0008327-001) is 91%; in experiment [2] (batch_name=ASAP-0008327-001), 99%; in experiment [3] (batch_name=ASAP-0008327-001) it was 97%; in experiment [4] (batch_name=ASAP-0008327-001), 88%; in experiment [5] (batch_name=ASAP-0008327-001), 98%; in experiment [6] (batch_name=ASAP-0008327-001), 102%. In addition, the remaining activity at 10 µM worked out at 88% in experiment [7] (batch_name=ASAP-0008327-001) and 85% in experiment [8] (batch_name=ASAP-0008327-001).
As for `CC(C)[C@H](Nc1ncnc2[nH]c(-c3cnn(C)c3C#N)cc12)c1ccc2c(n1)OCCO2` [ASAP-0010715], the remaining activity at 10 µM came out at 89% in experiment [1] (batch_name=ASAP-0010715-002); 114% in experiment [2] (batch_name=ASAP-0010715-002); 97% in experiment [3] (batch_name=ASAP-0010715-002); 120% in experiment [4] (batch_name=ASAP-0010715-002); 82% in experiment [5] (batch_name=ASAP-0010715-002); 104% in experiment [6] (batch_name=ASAP-0010715-002). Also, the values for the remaining activity at 10 µM in experiment [7] (batch_name=ASAP-0010715-002) and in experiment [8] (batch_name=ASAP-0010715-002) were 106% and 98%, respectively.
Take `COc1ccc([C@H](Cc2nnn[nH]2)NC(=O)c2ncnc3[nH]ccc23)cc1` [ASAP-0015381]: the remaining activity at 10 µM came out at 106% in experiment [1] (batch_name=ASAP-0015381-001); 103% in experiment [2] (batch_name=ASAP-0015381-001); 100% in experiment [3] (batch_name=ASAP-0015381-001); 127% in experiment [4] (batch_name=ASAP-0015381-001); 88% in experiment [5] (batch_name=ASAP-0015381-001); 97% in experiment [6] (batch_name=ASAP-0015381-001). Besides, the remaining activity at 10 µM in experiment [7] (batch_name=ASAP-0015381-001) is 109%; in experiment [8] (batch_name=ASAP-0015381-001), 107%.

The values are drawn from publication doi:10.1101/2024.08.19.608619, “Discovery of potent SARS-CoV-2 nsp3 macrodomain inhibitors uncovers lack of translation to cellular antiviral response” (bioRxiv, 2024).
